Measurements: PMC5065625, “Structure-mechanism-based engineering of chemical regulators targeting distinct pathological factors in Alzheimer's disease” (Nature Communications, 2016)

How the values were obtained:
[1] = test system: Cu(II)–Aβ40/Aβ42; experiment: Aβ aggregation inhibition/disaggregation experiments (gel/western blot, TEM), Cu(II); format: biochemical; details: Aβ 25 μM, compound 50 μM, 37 °C, 24 h; gel/western blot and TEM
Description: (§1) The ability of 1–4 to control the aggregation of both metal-free Aβ and metal-Aβ in inhibition (Fig. 2) and disaggregation experiments (Supplementary Fig. 1) was evaluated using the two major Aβ isoforms (Aβ40/Aβ42)[1][2][3][6][16] found in the AD-affected brain. Molecular weight (MW) distributions and morphologies of the resulting Aβ species were determined by gel electrophoresis followed by western blotting (gel/western blot) and transmission electron microscopy (TEM). Generally, under the experimental conditions employed herein, compound-free Aβ samples with and without metal ions assemble into a distribution of large aggregates that are too big to penetrate into the gel matrix, which yields very little smearing in the gel/western blots, but they can be visualized by TEM. The administration of compounds, able to interact with Aβ, inhibit the formation of high MW aggregates, and/or disassemble preformed aggregates, typically generates smaller-sized Aβ species that can enter into the gel and produce a substantial amount of streaking compared with the samples containing Aβ only.
Before experiments, Aβ40 or Aβ42 was dissolved in ammonium hydroxide (NH4OH; 1% v/v, aq). The resulting solution was aliquoted, lyophilized overnight and stored at −80 °C. A stock solution of Aβ was then prepared by dissolving lyophilized peptide in 1% NH4OH (10 μl) and diluting with ddH2O. The concentration of the solution was determined by measuring the absorbance of the solution at 280 nm (ɛ=1,450 M^–1 cm^–1 for Aβ40; ɛ=1,490 M^–1 cm^–1 for Aβ42). The peptide stock solution was diluted to a final concentration of 25 μM in Chelex-treated buffered solution containing HEPES ([…]; pH 6.6 for Cu(II) samples; pH 7.4 for metal-free and Zn(II) samples) and NaCl ([…]). For the inhibition studies, compounds (final concentration 50 μM, 1% v/v dimethyl sulfoxide (DMSO)) were added to the sample of Aβ (25 μM) in the absence and presence of a metal chloride salt (CuCl2 or ZnCl2; 25, 50, 100 or 125 μM) followed by incubation at 37 °C with constant agitation for 24 h. For the disaggregation studies, Aβ with and without a metal chloride salt was incubated for 24 h at 37 °C with constant agitation to generate preformed Aβ aggregates. The resulting samples were then treated with compounds (50 μM) and incubated with constant agitation for additional 24 h.
The Aβ samples from in vivo or in vitro experiments were analysed by gel electrophoresis followed by western blotting using an anti-Aβ antibody (6E10)[24][25][27][28][29]. Samples (10 μl) were separated on a 10–20% Tris-tricine gel (Invitrogen, Grand Island, NY, USA). […]

[2] = test system: cationic organic radical of ABTS; experiment: Trolox equivalent antioxidant capacity (TEAC) assay in M17 cell lysates; format: biochemical, human; details: relative to Trolox
Description: The assay employing M17 cell lysates was conducted following the protocol of the antioxidant assay kit purchased from Cayman Chemical Company (Ann Arbor, MI, USA) with minor modifications. For the antioxidant assay using cell lysates, cells were seeded in a six-well plate and grown to ∼80–90% confluence. Cell lysates were prepared following a previously reported method with modifications. M17 cells were washed once with cold PBS (pH 7.4, GIBCO) and harvested by gently pipetting off adherent cells with cold PBS. The cell pellet was generated by centrifugation (2,000g for 10 min at 4 °C). This cell pellet was sonicated on ice (5 s pulses, three times with 20 s intervals between each pulse) in 2 ml of cold Assay Buffer (5 mM potassium phosphate, pH 7.4, containing 0.9% NaCl and 0.1% glucose). The cell lysates were centrifuged at 5,000g for 10 min at 4 °C. The supernatant was removed and stored on ice until use. For standard and samples in 96-well plates, 10 μl of the supernatant of cell lysates was delivered followed by addition of compound, metmyoglobin, ABTS and H2O2 in order. After 5 min incubation at room temperature on a shaker, absorbance values at 750 nm were recorded. The antioxidant concentration was calculated according to the measured absorbance (% inhibition=100 × (A0 – A)/A0, where A0 is absorbance of the supernatant of cell lysates). The measurements were conducted in triplicate.

[3] = Stability in solution (UV–vis, ESI–MS) in the presence of Cu(II); format: physicochemical; details: Cu 25 μM; for half-life at 50 μM: HEPES buffer with CuCl2, pH 7.4, compound 50 μM, read-out: t1/2, + Cu(II); for half-life at 50 μM / k, + Cu(II) (rate of decay of the absorbance peak) / t1/2, + Cu(II): HEPES pH 7.4, 37 °C
Description: The stability of 1–4 (50 μM) in the absence and presence of CuCl2 (25 μM) was monitored every 10 min using UV–vis for 5 h in buffer ([…], pH 7.4, […]; 1% DMSO) at 37 °C. The resulting spectra were corrected for baseline shifts at 800 nm and the half-life and rate of decay of the absorbance at 250, 385 and 400 nm for 4, [Cu(II)+1], and [Cu(II)+3], respectively, was calculated using the first-order exponential decay function as implemented in Origin 9.1 (OrginLab Corp., Northampton, MA, USA). Additionally, the species present were identified using ESI–MS. Samples containing 1–4 (50 μM) with or without CuCl2 (25 μM) were incubated in ddH2O (1% DMSO) at 37 °C for the selected time points before being freshly frozen using liquid nitrogen and stored at −80 °C until they were thawed immediately before measurement.

[4] = test system: Zn(II)–Aβ40/Aβ42; experiment: Aβ aggregation inhibition/disaggregation experiments (gel/western blot, TEM), Zn(II); format: biochemical; details: Aβ 25 μM, compound 50 μM, 37 °C, 24 h; gel/western blot and TEM
Description: as §1
Before experiments, Aβ40 or Aβ42 was dissolved in ammonium hydroxide (NH4OH; 1% v/v, aq). The resulting solution was aliquoted, lyophilized overnight and stored at −80 °C. A stock solution of Aβ was then prepared by dissolving lyophilized peptide in 1% NH4OH (10 μl) and diluting with ddH2O. The concentration of the solution was determined by measuring the absorbance of the solution at 280 nm (ɛ=1,450 M^–1 cm^–1 for Aβ40; ɛ=1,490 M^–1 cm^–1 for Aβ42). The peptide stock solution was diluted to a final concentration of 25 μM in Chelex-treated buffered solution containing HEPES ([…]; pH 6.6 for Cu(II) samples; pH 7.4 for metal-free and Zn(II) samples) and NaCl (150 μM). […]
The Aβ samples from in vivo or in vitro experiments were analysed by gel electrophoresis followed by western blotting using an anti-Aβ antibody (6E10)[24][25][27][28][29]. […]

| SMILES | Modulation of Cu(II)-induced Aβ aggregation [1] | Free organic radical scavenging ability (TEAC) [2] | half-life at 50 μM [3] [min] | k, + Cu(II) (rate of decay of the absorbance peak) ([3]; compound 50 μM) | t1/2, + Cu(II) ([3]; compound 50 μM) | Modulation of Zn(II)-induced Aβ aggregation [4] | Stability of the complex with Cu(II) ([3]; compound 50 μM, 5 h) |
| --- | --- | --- | --- | --- | --- | --- | --- |
| CN(C)c1ccc(NCc2ccc3ccccc3n2)cc1 [compound 3, N^1,N^1-dimethyl-N^4-(quinolin-2-ylmethyl)benzene-1,4-diamine] | modulates Aβ aggregation involved by both Cu(II) and Zn(II) | greater capacity than 2 | 53 ± 3 | 0.013 ± 0.001 min⁻¹ | ~50 min | modulates Aβ aggregation involved by both Cu(II) and Zn(II) |  |
| Nc1ccc(NCc2ccccn2)cc1 [compound 1, N^1-(pyridin-2-ylmethyl)benzene-1,4-diamine] | redirect Cu(II)-promoted Aβ40 and Aβ42 aggregation | greater capacity than 2 | 8 ± 3 | 0.09 ± 0.03 min⁻¹ | ~5 min | did not show any noticeable activity |  |
| CN(C)c1ccc(NCc2ccc[nH]2)cc1 [compound 4, N^1-((1H-pyrrol-2-yl)methyl)-N^4,N^4-dimethylbenzene-1,4-diamine] | redirect both Cu(II)- and Zn(II)-induced Aβ aggregation | greater capacity than 2 | < 1 | too rapidly to measure |  | redirect both Cu(II)- and Zn(II)-induced Aβ aggregation |  |
| COc1cc(NCc2ccccn2)cc(OC)c1 [compound 2, 3,5-dimethoxy-N-(pyridin-2-ylmethyl)aniline] | modulating activity at higher Cu(II) concentrations |  |  | too slow to accurately measure the rate | No noticeable spectral changes were observed over 5 h |  | without any further transformations over the course of 5 h |
